# In article PMC3367438 (2011):
# Molecular target: Aβ42 (β-amyloid peptide) (Homo sapiens, UniProt P05067)
# Test: fluorescence polarization of the intrinsically fluorescent probe
# Format: binding
# Aβ42 (β-amyloid peptide), sequence (P05067 672-713 limits assumed): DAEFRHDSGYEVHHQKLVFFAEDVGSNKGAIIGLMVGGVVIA
smiles,measurement,value
"COc1cc(C=CC(=O)C(Cc2cn(CCCCCCNC(=O)CCNC(=O)CCNC(=O)COC3CCC4(C)C(=CCC5C4CCC4(C)C(C(C)CCCC(C)C)CCC54)C3)nn2)C(=O)C=Cc2ccc(O)c(OC)c2)ccc1O (stereo not shown) [compound 7, BMAOI 14]",Kd,830 nM
